According to patent US6436373B1, “Oligomeric diarylbutadienes” (BASF Aktiengesellschaft, priority 1998, dated 2002):

Test: UV absorption (λmax and specific absorbance E1^1)
Format: physicochemical
Settings: for λmax.: UV absorption maximum, no unit or solvent printed; for E1^1: specific absorbance at λmax, solvent not given

Row | λmax. | E1^1 | Compound
1 | 354 | 850 | N#C/C(=C/C=C(c1ccccc1)c1ccccc1)C(=O)OCCOC(=O)/C(C#N)=C\C=C(c1ccccc1)c1ccccc1 [Example 3]
2 | 336 | 800 | CCOC(=O)/C(=C/C=C(c1ccccc1)c1ccccc1)C(=O)OCCOC(=O)/C(=C\C=C(c1ccccc1)c1ccccc1)C(=O)OCC [Example 2]
